# How the values were obtained:
# Assay type in all cases: cell-based
# [1] = target: BaF3 cell lines stably transfected with kinase EGFR Del (Homo sapiens, UniProt P00533, cells depend on it, form not given); assay: Growth inhibition of BaF3 cell line stably transfected with kinase EGFR Del (MTS); details: 48 h, read-out: growth inhibitory activity IC50, Del
# In short: (§1)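 48 h cpd exposure, 37 °C/5% CO2; 8-pt ⅓ dilution from 10 μM; 0.1% DMSO; MTS+PES 1-4 h; OD490; duplicates; IC50 from % inhibition vs DMSO/blank.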
# [2] = target: BaF3 cell lines stably transfected with kinase EGFR L858R (Homo sapiens, UniProt P00533, L858R, cells depend on it); assay: Growth inhibition of BaF3 cell line stably transfected with kinase EGFR L858R (MTS); details: 48 h, read-out: growth inhibitory activity IC50, L858R
# Sequence of BaF3 cell lines stably transfected with kinase EGFR L858R (P00533 whole entry L858R): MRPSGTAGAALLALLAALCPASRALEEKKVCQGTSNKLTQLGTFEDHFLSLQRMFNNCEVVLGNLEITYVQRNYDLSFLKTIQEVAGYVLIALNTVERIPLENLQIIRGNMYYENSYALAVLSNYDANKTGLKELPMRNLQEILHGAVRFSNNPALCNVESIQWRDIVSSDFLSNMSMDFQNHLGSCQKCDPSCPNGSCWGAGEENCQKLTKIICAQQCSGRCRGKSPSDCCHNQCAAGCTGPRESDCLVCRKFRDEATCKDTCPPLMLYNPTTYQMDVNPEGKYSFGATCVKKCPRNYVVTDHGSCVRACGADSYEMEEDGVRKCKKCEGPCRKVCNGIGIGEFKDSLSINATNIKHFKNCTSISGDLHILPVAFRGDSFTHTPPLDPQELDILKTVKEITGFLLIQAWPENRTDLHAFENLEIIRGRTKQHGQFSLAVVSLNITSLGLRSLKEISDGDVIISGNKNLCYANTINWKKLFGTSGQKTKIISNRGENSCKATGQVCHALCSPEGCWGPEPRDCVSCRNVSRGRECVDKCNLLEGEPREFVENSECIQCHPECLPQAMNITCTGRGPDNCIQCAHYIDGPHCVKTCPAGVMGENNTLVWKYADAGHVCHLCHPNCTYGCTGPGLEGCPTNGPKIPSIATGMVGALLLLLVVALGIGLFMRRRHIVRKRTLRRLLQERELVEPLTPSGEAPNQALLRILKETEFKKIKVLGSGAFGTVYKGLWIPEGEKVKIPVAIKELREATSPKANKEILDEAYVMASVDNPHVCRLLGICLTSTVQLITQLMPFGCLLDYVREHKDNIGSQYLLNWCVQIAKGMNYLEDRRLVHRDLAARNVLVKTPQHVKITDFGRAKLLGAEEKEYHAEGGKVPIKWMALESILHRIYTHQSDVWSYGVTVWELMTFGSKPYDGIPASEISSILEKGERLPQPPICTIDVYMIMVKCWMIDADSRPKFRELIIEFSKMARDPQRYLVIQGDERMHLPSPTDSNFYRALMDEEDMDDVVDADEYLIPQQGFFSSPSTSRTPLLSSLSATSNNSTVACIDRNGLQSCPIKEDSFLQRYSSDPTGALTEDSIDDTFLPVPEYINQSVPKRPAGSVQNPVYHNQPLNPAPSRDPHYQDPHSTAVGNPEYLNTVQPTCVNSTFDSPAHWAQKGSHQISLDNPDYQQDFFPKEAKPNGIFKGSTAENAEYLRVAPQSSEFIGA
# In short: as §1
# [3] = target: BaF3 cell lines stably transfected with kinase EGFR Del/T790M (Homo sapiens, UniProt P00533, T790M, cells depend on it, form not given); assay: Growth inhibition of BaF3 cell line stably transfected with kinase EGFR Del/T790M (MTS); details: 48 h, read-out: growth inhibitory activity IC50, Del/T790M
# In short: as §1
# [4] = target: BaF3 cell lines stably transfected with kinase EGFR L858R/T790M (Homo sapiens, UniProt P00533, T790M/L858R, cells depend on it); assay: Growth inhibition of BaF3 cell line stably transfected with kinase EGFR L858R/T790M (MTS); details: 48 h, read-out: growth inhibitory activity IC50, L858R/T790M
# Sequence of BaF3 cell lines stably transfected with kinase EGFR L858R/T790M (P00533 whole entry T790M/L858R): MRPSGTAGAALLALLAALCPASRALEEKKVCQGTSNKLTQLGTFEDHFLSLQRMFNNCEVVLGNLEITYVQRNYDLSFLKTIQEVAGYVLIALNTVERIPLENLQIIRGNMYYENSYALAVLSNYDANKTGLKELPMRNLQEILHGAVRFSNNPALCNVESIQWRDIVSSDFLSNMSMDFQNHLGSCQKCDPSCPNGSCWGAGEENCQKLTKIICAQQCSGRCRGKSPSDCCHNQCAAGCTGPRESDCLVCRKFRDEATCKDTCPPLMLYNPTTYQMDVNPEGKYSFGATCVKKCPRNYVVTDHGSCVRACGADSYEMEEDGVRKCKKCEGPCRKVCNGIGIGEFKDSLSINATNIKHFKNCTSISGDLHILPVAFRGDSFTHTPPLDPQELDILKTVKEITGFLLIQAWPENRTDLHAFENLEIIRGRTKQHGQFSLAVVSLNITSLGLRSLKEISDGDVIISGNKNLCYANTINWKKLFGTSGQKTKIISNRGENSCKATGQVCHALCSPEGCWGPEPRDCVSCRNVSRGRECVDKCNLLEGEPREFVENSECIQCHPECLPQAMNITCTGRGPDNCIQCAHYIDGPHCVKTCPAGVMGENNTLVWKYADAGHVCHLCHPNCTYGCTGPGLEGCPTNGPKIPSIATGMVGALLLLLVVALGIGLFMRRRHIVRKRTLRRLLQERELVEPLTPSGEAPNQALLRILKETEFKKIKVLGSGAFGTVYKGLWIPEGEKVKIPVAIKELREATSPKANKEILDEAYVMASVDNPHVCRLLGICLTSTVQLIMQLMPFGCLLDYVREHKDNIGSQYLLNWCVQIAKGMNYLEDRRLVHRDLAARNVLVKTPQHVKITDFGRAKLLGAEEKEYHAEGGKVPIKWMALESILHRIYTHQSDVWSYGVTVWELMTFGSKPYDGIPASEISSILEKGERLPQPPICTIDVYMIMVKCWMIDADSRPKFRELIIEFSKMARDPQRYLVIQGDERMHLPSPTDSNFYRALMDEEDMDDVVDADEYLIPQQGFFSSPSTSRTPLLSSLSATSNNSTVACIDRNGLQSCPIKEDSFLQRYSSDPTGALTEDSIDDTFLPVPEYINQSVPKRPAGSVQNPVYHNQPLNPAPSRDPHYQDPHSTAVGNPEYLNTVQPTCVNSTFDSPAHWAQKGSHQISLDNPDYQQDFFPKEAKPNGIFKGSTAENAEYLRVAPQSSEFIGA
# In short: as §1
# [5] = target: BaF3 cell lines stably transfected with kinase EGFR Del/T790M/C797S (Homo sapiens, UniProt P00533, T790M/C797S, cells depend on it, form not given); assay: Growth inhibition of BaF3 cell line stably transfected with kinase EGFR Del/T790M/C797S (MTS); details: 48 h, read-out: growth inhibitory activity IC50, Del/T790M/C797S
# In short: as §1
# [6] = target: BaF3 cell lines stably transfected with kinase EGFR L858R/T790M/C797S (Homo sapiens, UniProt P00533, T790M/C797S/L858R, cells depend on it); assay: Growth inhibition of BaF3 cell line stably transfected with kinase EGFR L858R/T790M/C797S (MTS); details: 48 h, read-out: growth inhibitory activity IC50, L858R/T790M/C797S
# Sequence of BaF3 cell lines stably transfected with kinase EGFR L858R/T790M/C797S (P00533 whole entry T790M/C797S/L858R): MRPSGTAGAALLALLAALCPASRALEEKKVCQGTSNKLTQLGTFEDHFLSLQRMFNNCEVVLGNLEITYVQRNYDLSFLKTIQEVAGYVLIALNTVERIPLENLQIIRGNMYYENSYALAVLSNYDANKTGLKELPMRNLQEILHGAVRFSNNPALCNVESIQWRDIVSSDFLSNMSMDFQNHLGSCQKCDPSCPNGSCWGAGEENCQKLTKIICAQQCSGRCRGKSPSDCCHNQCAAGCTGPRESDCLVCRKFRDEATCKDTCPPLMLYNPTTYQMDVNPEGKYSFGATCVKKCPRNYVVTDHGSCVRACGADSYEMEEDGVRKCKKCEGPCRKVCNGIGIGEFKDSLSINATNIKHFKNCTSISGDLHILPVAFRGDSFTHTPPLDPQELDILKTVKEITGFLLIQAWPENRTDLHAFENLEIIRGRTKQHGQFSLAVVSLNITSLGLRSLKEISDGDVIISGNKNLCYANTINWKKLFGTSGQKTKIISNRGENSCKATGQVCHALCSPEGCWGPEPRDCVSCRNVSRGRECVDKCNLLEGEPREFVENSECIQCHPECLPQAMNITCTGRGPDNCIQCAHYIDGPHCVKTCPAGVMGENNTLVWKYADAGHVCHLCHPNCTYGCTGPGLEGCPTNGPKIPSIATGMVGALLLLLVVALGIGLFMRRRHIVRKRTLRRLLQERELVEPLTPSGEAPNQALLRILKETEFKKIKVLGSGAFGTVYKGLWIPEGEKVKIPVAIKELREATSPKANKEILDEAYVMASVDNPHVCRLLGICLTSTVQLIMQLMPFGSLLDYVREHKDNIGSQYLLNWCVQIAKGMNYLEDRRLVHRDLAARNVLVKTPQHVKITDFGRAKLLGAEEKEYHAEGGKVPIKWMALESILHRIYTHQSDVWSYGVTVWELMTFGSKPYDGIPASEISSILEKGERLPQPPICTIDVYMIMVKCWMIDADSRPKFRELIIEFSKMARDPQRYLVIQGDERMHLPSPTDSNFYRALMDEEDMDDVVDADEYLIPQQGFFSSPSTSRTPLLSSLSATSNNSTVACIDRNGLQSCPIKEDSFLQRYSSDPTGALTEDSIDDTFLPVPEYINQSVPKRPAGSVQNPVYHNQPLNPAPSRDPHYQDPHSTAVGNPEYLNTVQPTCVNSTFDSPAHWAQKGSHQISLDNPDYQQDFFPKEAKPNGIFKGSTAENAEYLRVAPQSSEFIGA
# In short: as §1
# Sequence of BaF3 cell lines stably transfected with kinase EGFR Del (P00533 with tags, fused parts or gaps DEL746-750): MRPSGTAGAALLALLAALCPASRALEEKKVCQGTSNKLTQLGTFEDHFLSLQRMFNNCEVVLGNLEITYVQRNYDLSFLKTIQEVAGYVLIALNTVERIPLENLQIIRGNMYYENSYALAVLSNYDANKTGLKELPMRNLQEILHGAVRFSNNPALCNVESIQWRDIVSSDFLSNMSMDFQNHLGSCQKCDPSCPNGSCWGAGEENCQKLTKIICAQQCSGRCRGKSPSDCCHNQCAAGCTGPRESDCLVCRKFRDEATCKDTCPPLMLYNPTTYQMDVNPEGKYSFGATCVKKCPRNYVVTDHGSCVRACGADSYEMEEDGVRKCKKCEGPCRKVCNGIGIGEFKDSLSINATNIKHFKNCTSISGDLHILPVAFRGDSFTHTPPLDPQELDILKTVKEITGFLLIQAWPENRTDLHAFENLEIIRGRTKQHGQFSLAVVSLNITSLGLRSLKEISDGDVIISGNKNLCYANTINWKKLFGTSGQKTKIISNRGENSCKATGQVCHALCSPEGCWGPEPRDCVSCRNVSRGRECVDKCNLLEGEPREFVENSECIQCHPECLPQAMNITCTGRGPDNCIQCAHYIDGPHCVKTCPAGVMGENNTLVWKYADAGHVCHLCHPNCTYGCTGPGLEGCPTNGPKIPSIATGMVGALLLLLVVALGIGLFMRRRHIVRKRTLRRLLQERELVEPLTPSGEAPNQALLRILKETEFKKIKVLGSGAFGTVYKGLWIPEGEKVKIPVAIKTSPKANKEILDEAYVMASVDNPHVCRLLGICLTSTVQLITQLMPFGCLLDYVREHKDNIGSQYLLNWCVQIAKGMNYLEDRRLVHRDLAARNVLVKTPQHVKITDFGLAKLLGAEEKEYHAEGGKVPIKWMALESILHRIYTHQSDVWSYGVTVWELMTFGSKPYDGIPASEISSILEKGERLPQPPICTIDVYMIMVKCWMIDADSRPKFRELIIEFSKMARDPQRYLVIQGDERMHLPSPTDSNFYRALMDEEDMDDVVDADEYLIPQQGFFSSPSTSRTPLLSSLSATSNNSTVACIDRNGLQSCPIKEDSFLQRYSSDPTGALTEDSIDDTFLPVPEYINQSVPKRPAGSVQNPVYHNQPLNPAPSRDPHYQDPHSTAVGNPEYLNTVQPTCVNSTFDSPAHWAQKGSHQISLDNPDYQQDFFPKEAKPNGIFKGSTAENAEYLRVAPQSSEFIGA
Compound,GI50 [1] [nM],GI50 [2] [nM],GI50 [3] [nM],GI50 [4] [nM],GI50 [5] [nM],GI50 [6] [nM]
C=Cc1cnc(Nc2cc(CC3CC3)c(N3CCC(N4CCN(C)CC4)CC3)cc2OC)nc1Nc1ccc2nccnc2c1P(C)(C)=O [Compound I-7],≤ 50,≤ 50,≤ 50,≤ 50,≤ 50,≤ 50
C=Cc1cnc(Nc2cc(CC)c(N3CCC(N4CCN(C)CC4)CC3)cc2OC)nc1Nc1ccc2nccnc2c1N(C)S(=O)(=O)C1CC1 [II-11],≤ 50,50 to 500,≤ 50,50 to 500,50 to 500,50 to 500
C=Cc1cnc(Nc2cc(C(C)C)c(N3CCC(N4CCN(C)CC4)CC3)cc2OC)nc1Nc1ccc2nccnc2c1NS(C)(=O)=O [II-35],50 to 500,50 to 500,50 to 500,500 to 2500,500 to 2500,50 to 500
C=Cc1cnc(Nc2cc(CC)c(N3CCC(N4CCN(C)CC4)CC3)cc2OC)nc1Nc1ccc2nccnc2c1S(=O)(=O)C(C)C [III-6],50 to 500,50 to 500,50 to 500,50 to 500,50 to 500,50 to 500
C=Cc1cnc(Nc2cc(CC)c(N3CCC(N4CCN(C)CC4)CC3)cc2OC)nc1Nc1ccc2nccnc2c1N(C)S(C)(=O)=O [II-1],≤ 50,≤ 50,≤ 50,≤ 50,≤ 50,≤ 50
C=Cc1cnc(Nc2cc(CC3CC3)c(N3CCC(N4CCN(C)CC4)CC3)cc2OC)nc1Nc1ccc2nccnc2c1N(C)S(C)(=O)=O [II-7],≤ 50,≤ 50,≤ 50,≤ 50,≤ 50,≤ 50
C=Cc1cnc(Nc2cc(C)c(N3CCC(N4CCN(C)CC4)CC3)cc2OC)nc1Nc1ccc2nccnc2c1S(C)(=O)=O [III-9],500 to 2500,500 to 2500,500 to 2500,50 to 500,500 to 2500,500 to 2500
C=Cc1cnc(Nc2cc(CC)c(N3CCC(N4CCNCC4)CC3)cc2OC)nc1Nc1ccc2nccnc2c1N(C)S(C)(=O)=O [II-52],50 to 500,50 to 500,50 to 500,≤ 50,≤ 50,≤ 50
C=C(C)c1cnc(Nc2cc(C(C)C)c(N3CCC(N4CCN(C)CC4)CC3)cc2OC)nc1Nc1ccc2nccnc2c1N(C)S(C)(=O)=O [II-22],50 to 500,50 to 500,50 to 500,50 to 500,50 to 500,500 to 2500
CCc1cc(Nc2ncc(/C=C/c3ccccc3)c(Nc3ccc4nccnc4c3P(C)(C)=O)n2)c(OC)cc1N1CCC(N2CCN(C)CC2)CC1 [Compound I-14],50 to 500,≤ 50,50 to 500,500 to 2500,50 to 500,50 to 500
C=Cc1cnc(Nc2cc(CC)c(NCCO)cc2OC)nc1Nc1ccc2nccnc2c1N(C)S(C)(=O)=O [II-49],500 to 2500,500 to 2500,500 to 2500,50 to 500,50 to 500,50 to 500
C=Cc1cnc(Nc2cc(CC)c(N3CCC(N4CCN(C)CC4)CC3)cc2OC)nc1Nc1ccc2nccnc2c1S(=O)(=O)NC(C)C [IV-18],50 to 500,50 to 500,50 to 500,50 to 500,500 to 2500,500 to 2500
C=Cc1cnc(Nc2cc(C(C)C)c(N3CCC(N4CCN(C)CC4)CC3)cc2OC)nc1Nc1ccc2nccnc2c1N(C)S(C)(=O)=O [II-17],50 to 500,500 to 2500,50 to 500,50 to 500,50 to 500,50 to 500
CCc1cc(Nc2ncc(C3=CCCC3)c(Nc3ccc4nccnc4c3N(C)S(C)(=O)=O)n2)c(OC)cc1N1CCC(N2CCN(C)CC2)CC1 [II-27],≤ 50,50 to 500,500 to 2500,500 to 2500,500 to 2500,500 to 2500
C=Cc1cnc(Nc2cc(CC)c(N3CCC(N(C)C)CC3)cc2OC)nc1Nc1ccc2nccnc2c1S(C)(=O)=O [III-2],500 to 2500,500 to 2500,50 to 500,50 to 500,500 to 2500,50 to 500
C=Cc1cnc(Nc2cc(F)c(N3CCC(N4CCN(C)CC4)CC3)c(F)c2)nc1Nc1ccc2nccnc2c1S(=O)(=O)NC [IV-11],50 to 500,50 to 500,50 to 500,≤ 50,50 to 500,50 to 500
C=C(C)c1cnc(Nc2cn[nH]c2)nc1Nc1ccc2nccnc2c1N(C)S(C)(=O)=O [II-70],50 to 500,50 to 500,50 to 500,≤ 50,≤ 50,50 to 500
